In general, GI50 refers to the concentration that inhibits growth by half. What is called TGI is the concentration giving total growth inhibition. Lower therefore signals more potent growth arrest.

SMILES strings stand for the structures.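 Results reflect a 48-hour exposure of cells in 96-well plates to compound at five concentrations. GI50: concentration for 50% inhibition of growth. TGI: concentration producing complete growth inhibition.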 Some results are limits rather than exact numbers.

Some test systems named below: A498 renal; HCT-116 colon; HCT-15 colon; KM12 colon; OVCAR-3 ovarian; OVCAR-4 ovarian; SK-MEL-2 melanoma; SK-MEL-28 melanoma; T-47D breast; RXF 393 renal.
Holding throughout (test): DTP human tumour cell line panel, 48 h

With `CC(C)C[CH2][Ge]([CH2]CC(C)C)([CH2]CC(C)C)[CH2]CC(C)C`, the GI50 in the assay with A498 renal, with HCT-116 colon, in the assay on HCT-15 colon, in the assay with KM12 colon, with OVCAR-3 ovarian and in the assay with OVCAR-4 ovarian was more than 100 µM throughout. Also, the GI50 with SK-MEL-2 melanoma, with SK-MEL-28 melanoma and in the assay with T-47D breast was more than 100 µM throughout. For the same compound, the TGI in the assay with A498 renal, with HCT-116 colon, with HCT-15 colon, in the assay with KM12 colon, with OVCAR-3 ovarian and in the assay with OVCAR-4 ovarian was more than 100 µM each time. Moreover, the TGI in the assay on SK-MEL-2 melanoma, in the assay on SK-MEL-28 melanoma and in the assay with T-47D breast was more than 100 µM throughout.
As to `COc1ccc(-n2cc(-c3cc(OC)c(OC)c(OC)c3)[nH]c2=S)cc1Cl`, the GI50 in the assay on HCT-116 colon was 24.4 µM; with HCT-15 colon, more than 100 µM; with KM12 colon it was more than 100 µM; with OVCAR-3 ovarian, 26.1 µM; in the assay on OVCAR-4 ovarian, 27.2 µM; with RXF 393 renal, 17.6 µM. The figures for the GI50 in the assay with SK-MEL-2 melanoma, in the assay with SK-MEL-28 melanoma and with T-47D breast were more than 100 µM, 63 µM and 29 µM, respectively. Moreover, the total growth inhibition concentration (TGI) with HCT-116 colon, in the assay with HCT-15 colon, in the assay with KM12 colon, in the assay on OVCAR-3 ovarian, in the assay on OVCAR-4 ovarian and in the assay with RXF 393 renal was more than 100 µM each time. Moreover, the TGI with SK-MEL-2 melanoma, with SK-MEL-28 melanoma and in the assay on T-47D breast was more than 100 µM in each case.
As for `Cc1cn([C@H]2C[C@H](O)[C@@H](CO)O2)c(=O)nc1N`, the TGI with A498 renal, in the assay on HCT-116 colon, in the assay with HCT-15 colon, with KM12 colon, in the assay with OVCAR-3 ovarian and in the assay on OVCAR-4 ovarian was more than 100 µM each time. The TGI in the assay with SK-MEL-2 melanoma, with SK-MEL-28 melanoma and in the assay on T-47D breast was more than 100 µM in each case.
For `O=C(Nc1ccc(Nc2ccncc2)cc1)c1ccc(Nc2ccnc3ccc([N+](=O)[O-])cc23)cc1[N+](=O)[O-]`, the GI50 with A498 renal was 24.2 µM; with HCT-116 colon it was 23.7 µM; in the assay on HCT-15 colon, 35.6 µM; in the assay with KM12 colon it was 6.47 µM; in the assay with OVCAR-3 ovarian, 24.7 µM; with OVCAR-4 ovarian it was 6.01 µM. For the same compound, the GI50 in the assay with RXF 393 renal was 24.9 µM; in the assay on SK-MEL-28 melanoma, 5.26 µM; in the assay with T-47D breast, 6.39 µM. Also, the concentration for total growth inhibition (TGI) was more than 62.2 µM in the assay on A498 renal; more than 100 µM in the assay with HCT-116 colon; more than 100 µM in the assay on HCT-15 colon; more than 100 µM in the assay with KM12 colon; more than 89.5 µM in the assay on OVCAR-3 ovarian; more than 79.1 µM in the assay on OVCAR-4 ovarian. Also, the concentration for total growth inhibition (TGI) is 42.5 µM in the assay with RXF 393 renal, more than 46.1 µM with SK-MEL-28 melanoma and 34.9 µM in the assay with T-47D breast.
Consider `Oc1ccc2ccccc2c1N=Nc1ccc(Cl)cc1`, for which the TGI in the assay with HCT-116 colon, with HCT-15 colon, in the assay with KM12 colon, in the assay with OVCAR-3 ovarian, in the assay on OVCAR-4 ovarian and in the assay with RXF 393 renal was more than 100 µM each time. In addition, the TGI in the assay on SK-MEL-2 melanoma, in the assay with SK-MEL-28 melanoma and in the assay with T-47D breast was more than 100 µM in each case.
For `COc1ccc(-c2nc(-c3ccccn3)c(-c3ccccn3)n2CC(C)C)cc1OC1CCCC1`, the GI50 is 16.5 µM in the assay on A498 renal; 7.35 µM in the assay on HCT-116 colon; 6.72 µM in the assay on HCT-15 colon; 11.1 µM in the assay with KM12 colon; 30.3 µM with OVCAR-3 ovarian; 32.3 µM with OVCAR-4 ovarian. In addition, the GI50 in the assay with SK-MEL-2 melanoma was 38.4 µM; with SK-MEL-28 melanoma, 38.7 µM; in the assay with T-47D breast it was 9.73 µM. The TGI is 82.7 µM with A498 renal; more than 165 µM in the assay with HCT-116 colon; more than 165 µM in the assay with HCT-15 colon; more than 165 µM in the assay on KM12 colon; 114 µM with OVCAR-3 ovarian; 126 µM with OVCAR-4 ovarian. The TGI with SK-MEL-2 melanoma was 80.2 µM; with SK-MEL-28 melanoma it was 159 µM; in the assay on T-47D breast, more than 165 µM.
In the case of `COc1ccc2c(c1)C(=O)c1c-2c(N2CCN(C(=O)CNCCN(C)C)CC2)nc2ccccc12`, the GI50 was 2.14 µM in the assay with A498 renal; 1.22 µM in the assay with HCT-116 colon; 2.3 µM in the assay with HCT-15 colon; 1.83 µM in the assay with KM12 colon; 2.01 µM with OVCAR-3 ovarian; 5.62 µM with OVCAR-4 ovarian. Further, the GI50 was 2.07 µM in the assay on SK-MEL-2 melanoma, 1.67 µM in the assay with SK-MEL-28 melanoma and 1.38 µM in the assay on T-47D breast. For the same compound, the TGI was determined as 5 µM in the assay with A498 renal; 2.7 µM in the assay on HCT-116 colon; 5.44 µM with HCT-15 colon; 4.38 µM with KM12 colon; 5.76 µM in the assay on OVCAR-3 ovarian; 16.7 µM with OVCAR-4 ovarian. The concentration for total growth inhibition (TGI) with SK-MEL-2 melanoma is 3.83 µM; with SK-MEL-28 melanoma it was 3.04 µM; with T-47D breast it was 3.07 µM.
On to `CCCC(C)c1c(Cl)nc(Cl)nc1Cl` (stereo not drawn), for which the TGI turned out to be 3.66 µM in the assay on HCT-116 colon; 64.4 µM with HCT-15 colon; 10.2 µM with KM12 colon; 21.3 µM in the assay on OVCAR-3 ovarian; 44.7 µM with OVCAR-4 ovarian; 22.4 µM in the assay with RXF 393 renal. The TGI was more than 100 µM in the assay on SK-MEL-2 melanoma, 13.4 µM in the assay with SK-MEL-28 melanoma and 29 µM in the assay on T-47D breast.
Regarding `O=C(/C=C/c1ccccc1O)c1cccc2ccccc12`, the TGI with A498 renal was more than 100 µM; in the assay with HCT-116 colon it was more than 69.7 µM; in the assay on HCT-15 colon it was more than 58.4 µM; in the assay with KM12 colon it was more than 100 µM; in the assay with OVCAR-3 ovarian, more than 100 µM; in the assay on OVCAR-4 ovarian, more than 100 µM. Further, the values for the TGI with RXF 393 renal, in the assay with SK-MEL-2 melanoma and in the assay with SK-MEL-28 melanoma were more than 88.9 µM, more than 100 µM and more than 100 µM, respectively.
Take `CC(=O)OCCOCNC(=S)N/N=C(\C)c1cccs1`: the TGI with A498 renal, with HCT-116 colon, with HCT-15 colon, with KM12 colon, in the assay on OVCAR-3 ovarian and in the assay on OVCAR-4 ovarian was more than 100 µM throughout. The TGI in the assay with RXF 393 renal, in the assay on SK-MEL-2 melanoma and in the assay with SK-MEL-28 melanoma was more than 100 µM each time.
Consider `COc1cnc2c(c1)C(=O)c1c-2n(CCCNCCN2CCOCC2)c(=O)c2cc([N+](=O)[O-])ccc12`, for which the concentration for 50% growth inhibition (GI50) with HCT-15 colon was 0.297 µM; in the assay on KM12 colon it was 0.399 µM; with OVCAR-3 ovarian, 0.315 µM; with OVCAR-4 ovarian, 0.334 µM; with RXF 393 renal, 0.387 µM; in the assay on SK-MEL-2 melanoma, 1.59 µM. Besides, the GI50 with SK-MEL-28 melanoma is 1.13 µM; with T-47D breast it was 0.11 µM. The concentration for total growth inhibition (TGI) in the assay on HCT-15 colon is 2.58 µM; in the assay with KM12 colon it was 3.57 µM; in the assay with OVCAR-3 ovarian it was 1.71 µM; in the assay on OVCAR-4 ovarian, 3.44 µM; in the assay on RXF 393 renal, 1.93 µM; with SK-MEL-2 melanoma, 14.4 µM. Further, the TGI with SK-MEL-28 melanoma worked out at 14.3 µM; in the assay on T-47D breast, 18.1 µM.
With `Cc1cccc(C(C)C)c1NC(=O)CCl`, the TGI in the assay on A498 renal was more than 100 µM; with HCT-116 colon it was more than 100 µM; in the assay on HCT-15 colon, more than 100 µM; in the assay on KM12 colon, more than 100 µM; in the assay on OVCAR-3 ovarian, 59.9 µM; with OVCAR-4 ovarian, 76.6 µM. Moreover, the TGI was 75.5 µM in the assay with RXF 393 renal, more than 100 µM with SK-MEL-2 melanoma and more than 100 µM with SK-MEL-28 melanoma.
For `OCC(O)COc1c(Cl)cc(Cl)cc1Cl` (stereo not drawn), the TGI in the assay with A498 renal, with HCT-116 colon, in the assay with HCT-15 colon, with KM12 colon, in the assay with OVCAR-3 ovarian and with OVCAR-4 ovarian was more than 100 µM in each case. The TGI in the assay on RXF 393 renal, in the assay on SK-MEL-2 melanoma and in the assay with SK-MEL-28 melanoma was more than 100 µM each time.
For `O=C(O)c1cn(C2CC2)c2cc(N3CCNCC3)c(F)cc2c1=O`, the GI50 in the assay on HCT-116 colon, with HCT-15 colon, in the assay with KM12 colon, with OVCAR-3 ovarian, with OVCAR-4 ovarian and with RXF 393 renal was more than 100 µM each time. Moreover, the GI50 with SK-MEL-28 melanoma was more than 100 µM; in the assay on T-47D breast it was 70 µM. Further, the TGI with HCT-116 colon, in the assay on HCT-15 colon, in the assay with KM12 colon, in the assay with OVCAR-3 ovarian, in the assay on OVCAR-4 ovarian and with RXF 393 renal was more than 100 µM in each case. Besides, the TGI in the assay with SK-MEL-28 melanoma and with T-47D breast was more than 100 µM in each case.
As to `CCOc1ccc(NCC2CC/C(=C\c3ccc(Cl)cc3)C2=O)cc1` (stereo not drawn), the TGI in the assay on A498 renal was more than 95.9 µM; with HCT-116 colon, more than 62.9 µM; in the assay on HCT-15 colon it was 23.7 µM; with KM12 colon, more than 44 µM; in the assay on OVCAR-3 ovarian it was more than 51.9 µM; in the assay on OVCAR-4 ovarian it was more than 75.3 µM. Moreover, the TGI was more than 64.6 µM with RXF 393 renal, 58.7 µM in the assay on SK-MEL-2 melanoma and more than 100 µM in the assay on SK-MEL-28 melanoma.
Take `O=C1CCCC(O)=C1SC1=C(O)CCCC1=O`: the TGI in the assay with A498 renal, with HCT-116 colon, with HCT-15 colon, in the assay with KM12 colon, with OVCAR-3 ovarian and in the assay with OVCAR-4 ovarian was more than 100 µM each time. The TGI with RXF 393 renal, with SK-MEL-2 melanoma and with SK-MEL-28 melanoma was more than 100 µM throughout.
